Test results published in the NIST ThermoML archive (doi:10.1016/j.jct.2017.07.016).

Assay: xn = mol fraction of the nth substance listed
Conditions: 96.7 kPa, Liquid; for viscosity: Capillary tube (Ostwald / Ubbelohde) method; for mass density: Vibrating tube method

CCCCCCn1cc[n+](C)c1.[Cl-] [1-hexyl-3-methylimidazolium chloride] + c1ccncc1
Conditions | mass density [kg/m3] | viscosity [mPa·s]
303.15 K, x1 = 0.145 | 1000.09 | 3.442
303.15 K, x1 = 0.281 | 1013.46 | 12.9
303.15 K, x1 = 0.369 | 1019.3 | 27.09
303.15 K, x1 = 0.477 | 1025.04 | 89.47
303.15 K, x1 = 0.608 | 1029.07 | 266.74
303.15 K, x1 = 0.778 | 1033.09 | 1015.3
303.15 K, x1 = 0.877 | 1034.58 | 1617.5
303.15 K, x1 = 1 | 1036.07 | 5718.5
308.15 K, x1 = 0.145 | 995.92 | 3.081
308.15 K, x1 = 0.281 | 1009.71 | 11.03
308.15 K, x1 = 0.369 | 1015.8 | 22.93
308.15 K, x1 = 0.477 | 1021.74 | 68.74
308.15 K, x1 = 0.608 | 1025.91 | 192.89
308.15 K, x1 = 0.778 | 1030.09 | 686.42
308.15 K, x1 = 0.877 | 1031.66 | 1126
308.15 K, x1 = 1 | 1033.22 | 3430.8
313.15 K, x1 = 0.145 | 991.76 | 2.785
313.15 K, x1 = 0.281 | 1006 | 9.532
313.15 K, x1 = 0.369 | 1012.3 | 19.12
313.15 K, x1 = 0.477 | 1018.45 | 53.91
313.15 K, x1 = 0.608 | 1022.78 | 144.2
313.15 K, x1 = 0.778 | 1027.11 | 476.57
313.15 K, x1 = 0.877 | 1028.74 | 773.43
313.15 K, x1 = 1 | 1030.38 | 2146.1
318.15 K, x1 = 0.145 | 987.59 | 2.533
318.15 K, x1 = 0.281 | 1002.31 | 8.293
318.15 K, x1 = 0.369 | 1008.82 | 16.07
318.15 K, x1 = 0.477 | 1015.17 | 43.07
318.15 K, x1 = 0.608 | 1019.67 | 109.94
318.15 K, x1 = 0.778 | 1024.17 | 341.19
318.15 K, x1 = 0.877 | 1025.86 | 528.89
318.15 K, x1 = 1 | 1027.56 | 1390.4
323.15 K, x1 = 0.145 | 983.43 | 2.307
323.15 K, x1 = 0.281 | 998.61 | 7.283
323.15 K, x1 = 0.369 | 1005.33 | 13.71
323.15 K, x1 = 0.477 | 1011.9 | 35.05
323.15 K, x1 = 0.608 | 1016.57 | 85.19
323.15 K, x1 = 0.778 | 1021.24 | 249.82
323.15 K, x1 = 0.877 | 1022.99 | 376.53
323.15 K, x1 = 1 | 1024.75 | 928.1
328.15 K, x1 = 0.145 | 979.27 | 2.128
328.15 K, x1 = 0.281 | 994.88 | 6.442
328.15 K, x1 = 0.369 | 1001.86 | 11.78
328.15 K, x1 = 0.477 | 1008.64 | 28.97
328.15 K, x1 = 0.608 | 1013.48 | 67.45
328.15 K, x1 = 0.778 | 1018.31 | 185.55
328.15 K, x1 = 0.877 | 1020.12 | 273.63
328.15 K, x1 = 1 | 1021.92 | 638.79
333.15 K, x1 = 0.145 | 975.09 | 1.956
333.15 K, x1 = 0.281 | 991.21 | 5.738
333.15 K, x1 = 0.369 | 998.39 | 10.23
333.15 K, x1 = 0.477 | 1005.4 | 24.13
333.15 K, x1 = 0.608 | 1010.39 | 53.7
333.15 K, x1 = 0.778 | 1015.38 | 141.51
333.15 K, x1 = 0.877 | 1017.26 | 203.81
333.15 K, x1 = 1 | 1019.13 | 453.59
338.15 K, x1 = 0.145 | 970.94 | 1.793
338.15 K, x1 = 0.281 | 987.55 | 5.141
338.15 K, x1 = 0.369 | 994.92 | 8.972
338.15 K, x1 = 0.477 | 1002.17 | 20.39
338.15 K, x1 = 0.608 | 1007.32 | 43.75
338.15 K, x1 = 0.778 | 1012.47 | 109.4
338.15 K, x1 = 0.877 | 1014.43 | 154.83
338.15 K, x1 = 1 | 1016.38 | 327.52
343.15 K, x1 = 0.145 | 966.81 | 1.686
343.15 K, x1 = 0.281 | 983.89 | 4.636
343.15 K, x1 = 0.369 | 991.46 | 7.907
343.15 K, x1 = 0.477 | 998.94 | 17.36
343.15 K, x1 = 0.608 | 1004.24 | 35.95
343.15 K, x1 = 0.778 | 1009.55 | 86.53
343.15 K, x1 = 0.877 | 1011.6 | 120.81
343.15 K, x1 = 1 | 1013.65 | 243.04
348.15 K, x1 = 0.145 | 962.62 | 1.57
348.15 K, x1 = 0.281 | 980.23 | 4.198
348.15 K, x1 = 0.369 | 988.01 | 6.978
348.15 K, x1 = 0.477 | 995.69 | 14.96
348.15 K, x1 = 0.608 | 1001.17 | 30.11
348.15 K, x1 = 0.778 | 1006.66 | 68.87
348.15 K, x1 = 0.877 | 1008.78 | 94.01
348.15 K, x1 = 1 | 1010.91 | 183.45
353.15 K, x1 = 0.145 | 958.42 | 1.451
353.15 K, x1 = 0.281 | 976.57 | 3.822
353.15 K, x1 = 0.369 | 984.56 | 6.279
353.15 K, x1 = 0.477 | 992.4 | 13
353.15 K, x1 = 0.608 | 998.08 | 25.29
353.15 K, x1 = 0.778 | 1003.77 | 56.47
353.15 K, x1 = 0.877 | 1005.97 | 75.17
353.15 K, x1 = 1 | 1008.18 | 140.06
